Laboratory results published in patent publication US20100040568A1, “Steroidal compounds as melanogenesis modifiers and uses thereof” (SkinMedica, Inc., priority 2008, published 2010).

What was measured:
UV-induced pigmentation = conditions: topical application of 0.5%; cited from earlier work
melan-a cells = assay: Melanin assay in cultured murine melanocytes (melan-a); format: cell-based; conditions: 72 hours; for % of control remaining @ 1 μM / % of control remaining @ 5 μM: melanin, melan-a cells
Method: The Spectrum Collection library consisting of 2000 drug compounds or natural products was screened to identify novel pigmentation inhibitors or stimulators in cultured murine melanocytes (melan-a). Compounds were dissolved in dimethylsulfoxide (DMSO) to a final concentration of 10 mM. Screening was performed with cultured melanocytes in 24-well plates followed by melanin assay (see below). A minimum change of 50% in melanin formation was established as significant for a pigmentation inhibitor or stimulator. DMSO was used as a negative control and the widely used depigmenting agent, hydroquinone, was used as a positive control on every plate. […] Melan-a cells were plated at 5×10^4 cells per well in 1 ml of culture media in 24-well plates the day before adding the library compounds. All compounds were added at the indicated final concentrations. Cells were harvested after 72 hours of incubation, and melanin assay was performed. For the primary and secondary screening, cells were harvested and dissolved in 200 μl of 2N NaOH in 20% DMSO at 70° C. A 180-μl aliquot of the resulting solution was measured for absorbance at 490 nm. Cells are harvested in extraction buffer (1% Triton X-100, 50 mM Tris, 2 mM EDTA, 150 mM NaCl, pH 7.5) containing a complete protease inhibitor cocktail (Roche). The lysates were centrifuged at 14,000 rpm for 10 minutes at 4° C. BCA protein assay kit (Pierce) was used to measure the protein concentrations of the supernatants, and bovine serum albumin was used as a standard. […] A 180-μl aliquot of the resulting solution was measured for absorbance at 490 nm. The melanin contents were normalized to the total amount of protein. The IC50 value for inhibition of cellular melanin synthesis for conessine was determined by culturing melan-a cells with various concentrations of conessine for 72 hours. Briefly, melan-a cells were plated at 5×10^4 cells per well in 1 ml of culture media in 24-well plates the day before adding conessine. Conessine was added at the indicated final concentrations. DMSO was used as a negative control. Cells were harvested after 72 hours of incubation, and spectrophotometric melanin assay was performed on cell pellets. The melanin contents were normalized to the total amount of protein. Cell viability was determined by using the CellTiter 96 aqueous nonradioactive cell proliferation assay. […] Licorice extract was tested under similar conditions as conessine for its ability to decrease melanin synthesis in melan-a cells (FIG. 11c). Melan-a cells were plated at 5×10^4 cells per well in 1 ml of culture media in 24-well plates the day before adding Licorice extract. 70% ethanol was used as control and the Licorice extract was diluted in cell culture media at the indicated concentrations. […] Cells were harvested after 72 hours of incubation, and spectrophotometric melanin assay was performed on cell pellets. The melanin contents were normalized to the total amount of protein. Cell viability was determined by using the CellTiter 96 aqueous nonradioactive cell proliferation assay.

Structure (SMILES)	inhibition of UV-induced pigmentation (UV-induced pigmentation)	% of control remaining @ 1 μM (melan-a cells)	% of control remaining @ 5 μM (melan-a cells)	effect on melanin synthesis in melan-a cells (melan-a cells; indicated concentrations)
CC1(C)C=Cc2c(ccc3c2OC[C@@H](c2ccc(O)cc2O)C3)O1 [glabridin]	can inhibit the UV-induced pigmentation	–	–	–
CC1C2CCC3C4CC=C5CC(N(C)C)CCC5(C)C4CCC32CN1C (stereo not drawn) [Compound 3, N,N-Dimethylcon-5-enin-3-amine]	–	59.2 % of control	28.4 % of control	–
Oc1ccc(O)cc1 [hydroquinone, reference compound]	–	–	–	significantly inhibited melanogenesis in a dose-dependent manner
C[C@H]1C2CCC3[C@@H]4CC=C5C[C@@H](N(C)C)CC[C@]5(C)C4CC[C@@]32CN1C (mixture of isomers) [Compound 2, Con-5-enine, 3β-(dimethylamino)-, (±)-(8Cl) (Registry No: 14546-12-4)]	–	78.4 % of control	38.5 % of control	–
